Source: article PMC4051601, “Identification of NAD(P)H Quinone Oxidoreductase Activity in Azoreductases from P. aeruginosa: Azoreductases and NAD(P)H Quinone Oxidoreductases Belong to the Same FMN-Dependent Superfamily of Enzymes” (PLoS ONE, 2014)

Experiments:
[1] = target: T1, paAzoR1 (PA0785) (Pseudomonas aeruginosa, UniProt Q9I5F3); experiment: NADPH oxidation at […] nm; format: biochemical; details: 50 uM quinone, 500 uM NADPH, 20 mM Tris-HCl pH 8, 100 mM NaCl, 5% DMSO; only a specific rate given
T1 construct: gene azoR1; pure recombinant protein, expressed and purified as described previously; dimer with FMN
T1 sequence (Q9I5F3 1-212): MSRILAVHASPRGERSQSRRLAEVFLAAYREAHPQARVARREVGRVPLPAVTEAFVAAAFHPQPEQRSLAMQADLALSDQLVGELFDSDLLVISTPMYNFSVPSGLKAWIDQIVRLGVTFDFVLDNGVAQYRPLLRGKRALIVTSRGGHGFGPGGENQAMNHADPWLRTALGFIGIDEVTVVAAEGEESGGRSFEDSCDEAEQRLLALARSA

[2] = target: T2, paAzoR3 (PA3223) (Pseudomonas aeruginosa, UniProt Q9HZ17); experiment: NADH oxidation at […] nm; format: biochemical; details: 50 uM quinone, 500 uM NADH, 20 mM Tris-HCl pH 8, 100 mM NaCl, 5% DMSO; only a specific rate given
T2 construct: gene azoR3; pure recombinant protein, expressed and purified as described previously
T2 sequence (Q9HZ17 1-213): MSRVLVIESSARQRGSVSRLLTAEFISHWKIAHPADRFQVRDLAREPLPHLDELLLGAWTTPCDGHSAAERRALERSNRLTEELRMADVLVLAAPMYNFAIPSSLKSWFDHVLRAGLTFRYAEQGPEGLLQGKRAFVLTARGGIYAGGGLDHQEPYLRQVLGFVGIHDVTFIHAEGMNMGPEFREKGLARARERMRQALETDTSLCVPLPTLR

[3] = target: T1, paAzoR1 (PA0785); experiment: X-ray crystallography, […] A; format: binding
[4] = target: T1, paAzoR1 (PA0785); experiment: X-ray crystallography, […] A; format: binding; details: FMN-bound enzyme; one of two active sites; occupancy 0.5; hydrogen bond to Tyr131; co-crystallised with 2 mM ligand, pH 8

SMILES: O=C1C=CC(=O)C=C1 [Bzq, Benzoquinone]
- NADPH oxidation at 340 nm [1]: paAzoR1 has a preference for benzoquinones e.g. Bzq (Fig. 3a)

SMILES: CC1=CC(=O)c2c(O)cccc2C1=O [Plu, Plumbagin]
- NADH oxidation at 340 nm [2]: paAzoR3 prefers naphthoquinones e.g. Plu (Fig. 3c)

SMILES: Cc1cc2nc3c(=O)[nH]c(=O)nc-3n(C[C@H](O)[C@H](O)[C@H](O)COP(=O)(O)O)c2cc1C [FMN]
- X-ray crystallography, 1.8 A ([3]; structure with AQN, FMN also seen in the UQ1 complex (4N9Q)): AQN also forms π-π stacking interactions with the central ring of FMN

SMILES: COC1=C(OC)C(=O)C(CC=C(C)C)=C(C)C1=O [UQ1, Coenzyme Q1]
- X-ray crystallography, 2.0 A [4]: structures of paAzoR1 bound to two quinone substrates (UQ1 and AQN) have been solved

SMILES: O=C1c2ccccc2C(=O)c2cc(S(=O)(=O)O)ccc21 [AQN, anthraquinone-2-sulphonate]
- X-ray crystallography, 1.8 A ([3]; FMN-bound enzyme, one of two active sites, pi-stacking on FMN, co-crystallised with 2 mM ligand, pH 8): structures of paAzoR1 bound to two quinone substrates (UQ1 and AQN) have been solved
